Like-named read-outs stand apart in the source and are kept apart here.
Assays:
SHV-12 = SHV-12 (Klebsiella pneumoniae, UniProt P0AD64, E235K/G234S/L31Q); assay: Inhibition of nitrocefin cleavage by purified enzyme (Ki); format: biochemical
In short: (§1)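 Purified enzyme was preincubated with a range of inhibitor concentrations in reaction buffer for 10 min at room temperature. Nitrocefin was then added and its cleavage followed at 490 nm every 10 sec for 10 min.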

OXA-48 = OXA-48 (Klebsiella pneumoniae, UniProt Q6XEC0); assay: as above; format: biochemical; settings: nitrocefin reporter substrate, 10 min preincubation; read-out: Ki (OXA-48, NCF)
OXA-48, sequence (Q6XEC0 23-265 limits assumed): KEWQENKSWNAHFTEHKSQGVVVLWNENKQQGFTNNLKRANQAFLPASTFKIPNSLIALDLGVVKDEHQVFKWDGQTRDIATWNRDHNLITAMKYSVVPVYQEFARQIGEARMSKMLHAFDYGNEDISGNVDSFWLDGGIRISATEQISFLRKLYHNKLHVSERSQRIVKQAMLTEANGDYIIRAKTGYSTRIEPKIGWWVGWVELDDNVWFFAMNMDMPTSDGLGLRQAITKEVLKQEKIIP
In short: as §1

ECL1002 [1] = assay: Aztreonam potentiation (MPC@4); format: cell-based; settings: minimum BLI concentration inhibiting growth with 4 μg/mL aztreonam
KP1004 KPC-2 = assay: Biapenem potentiation (MPC@1); format: cell-based; settings: minimum BLI concentration inhibiting growth with 1 μg/mL biapenem
Protocol: (§2) Biapenem was present in the test medium at 1 μg/mL. […] Table 3 summarizes the BLI potency of biapenem potentiation (MPC@1) for two strains overexpressing class A (KPC) and class D (OXA-48) carbapenemases. Biapenem MIC for each strain is also shown.

OXA-48 KP1086 = assay: Biapenem potentiation (MPC@1); format: cell-based; settings: minimum BLI concentration inhibiting growth with 1 μg/mL biapenem
Protocol: as §2

SHV-5 ec308 [2] = assay: Aztreonam potentiation (MPC@4); format: cell-based; settings: minimum BLI concentration inhibiting growth with 4 μg/mL aztreonam
SHV-5 ec308 [3] = format: cell-based; settings: minimum BLI concentration inhibiting growth with tigemonam at 4 μg/mL
CTX-M-15 KP1009 [4] = assay: Aztreonam potentiation (MPC@4); format: cell-based; settings: minimum BLI concentration inhibiting growth with 4 μg/mL aztreonam
KPC-2 KP1004 = assay: Aztreonam potentiation (MPC@4); format: cell-based; settings: minimum BLI concentration inhibiting growth with 4 μg/mL aztreonam
CTX-M-15 KP1009 [5] = format: cell-based
[6] = Intravenous pharmacokinetics; format: in vivo; settings: rat, plasma, rats, IV infusion over 0.5 hours, read-out: Free Cl (converted)
Protocol: Rats (n=3 per compound) were administered by a single infusion. IV doses were infused over 0.5 hours via an indwelling femoral vein cannula. Plasma (˜0.3 mL) samples were collected from each rat at designated time points up to 24 hours. Blood samples were centrifuged within 5 min of collection at 12000 g for 5 min to obtain plasma. The plasma samples were stored at −80° C. until analyzed. Data were analyzed using WinNonlin.

CTX-M-14 KP1005 [7] = format: cell-based
CMY-6 EC1010 [8] = assay: Aztreonam potentiation (MPC@4); format: cell-based; settings: minimum BLI concentration inhibiting growth with 4 μg/mL aztreonam
ECL1002 [9] = format: cell-based; settings: minimum BLI concentration inhibiting growth with tigemonam at 4 μg/mL
CTX-M-14 KP1005 [10] = assay: Aztreonam potentiation (MPC@4); format: cell-based; settings: minimum BLI concentration inhibiting growth with 4 μg/mL aztreonam
KPC-2 = KPC-2 (Klebsiella pneumoniae, UniProt Q9F663); assay: Inhibition of nitrocefin cleavage by purified enzyme (Ki); format: biochemical; settings: nitrocefin reporter substrate, 10 min preincubation; read-out: Ki (KPC-2, NCF)
KPC-2, sequence (Q9F663 25-293 limits assumed): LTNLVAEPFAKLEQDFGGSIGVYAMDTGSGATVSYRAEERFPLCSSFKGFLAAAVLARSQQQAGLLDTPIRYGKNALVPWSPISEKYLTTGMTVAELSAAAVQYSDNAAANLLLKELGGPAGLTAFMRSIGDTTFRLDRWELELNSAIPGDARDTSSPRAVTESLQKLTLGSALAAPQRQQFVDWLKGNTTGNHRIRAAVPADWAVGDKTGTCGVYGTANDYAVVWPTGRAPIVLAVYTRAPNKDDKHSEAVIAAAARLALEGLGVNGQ
In short: as §1

P99 = P99 (Enterobacter cloacae, UniProt P05364); assay: as above; format: biochemical; settings: nitrocefin reporter substrate, 10 min preincubation; read-out: Ki (P99, NCF)
P99, sequence (P05364 21-381): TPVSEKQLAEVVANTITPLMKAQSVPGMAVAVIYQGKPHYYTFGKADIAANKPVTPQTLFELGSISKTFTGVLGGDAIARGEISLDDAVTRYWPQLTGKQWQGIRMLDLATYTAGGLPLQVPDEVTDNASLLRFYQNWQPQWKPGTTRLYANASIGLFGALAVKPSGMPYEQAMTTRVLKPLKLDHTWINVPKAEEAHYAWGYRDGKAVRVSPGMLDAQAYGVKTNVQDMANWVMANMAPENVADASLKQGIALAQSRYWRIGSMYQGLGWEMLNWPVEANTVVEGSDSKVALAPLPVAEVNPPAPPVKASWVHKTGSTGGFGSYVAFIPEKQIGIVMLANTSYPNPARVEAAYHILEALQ
In short: as §1

CTX-M-14 = CTX-M-14 (Escherichia coli, UniProt Q9L5C7); assay: as above; format: biochemical; settings: nitrocefin reporter substrate, 10 min preincubation; read-out: Ki (CTX-M-14, NCF)
CTX-M-14, sequence (Q9L5C7 entry or part of it): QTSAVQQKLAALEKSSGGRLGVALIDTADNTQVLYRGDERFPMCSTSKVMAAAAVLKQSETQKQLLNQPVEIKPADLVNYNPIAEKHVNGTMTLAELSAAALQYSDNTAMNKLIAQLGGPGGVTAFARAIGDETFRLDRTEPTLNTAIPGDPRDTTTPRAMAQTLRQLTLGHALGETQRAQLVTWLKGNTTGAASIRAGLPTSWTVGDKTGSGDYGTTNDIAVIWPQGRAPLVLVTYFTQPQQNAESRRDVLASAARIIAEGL
In short: as §1

CMY-6 EC1010 [11] = format: cell-based; settings: minimum BLI concentration inhibiting growth with tigemonam at 4 μg/mL
TEM-10 ec302 [12] = assay: Aztreonam potentiation (MPC@4); format: cell-based; settings: minimum BLI concentration inhibiting growth with 4 μg/mL aztreonam
TEM-10 ec302 [13] = format: cell-based

SHV-12, sequence (P0AD64 22-286 L31Q/G234S/E235K): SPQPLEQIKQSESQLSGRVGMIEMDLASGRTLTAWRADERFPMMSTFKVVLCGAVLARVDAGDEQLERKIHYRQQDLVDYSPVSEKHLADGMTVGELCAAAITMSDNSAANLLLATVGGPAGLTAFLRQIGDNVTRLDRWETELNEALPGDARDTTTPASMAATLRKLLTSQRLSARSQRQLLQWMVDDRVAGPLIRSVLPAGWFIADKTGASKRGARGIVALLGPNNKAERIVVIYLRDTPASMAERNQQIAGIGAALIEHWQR

| SMILES | Ki (OXA-48) | AZT MPC4 ECL1002 (ECL1002 [1]) | BPM MPC1 KP1004 KPC-2 (KP1004 KPC-2) | BPM MPC1 OXA-48 KP1086 (OXA-48 KP1086) | AZT MPC4 SHV-5 ec308 (SHV-5 ec308 [2]) | TIG MPC4 SHV-5 ec308 (SHV-5 ec308 [3]) | AZT MPC4 CTX-M-15 KP1009 (CTX-M-15 KP1009 [4]) | AZT MPC4 KPC-2 KP1004 (KPC-2 KP1004) | TIG MPC4 CTX-M-15 KP1009 (CTX-M-15 KP1009 [5]) | TIG MPC4 CTX-M-14 KP1005 (CTX-M-14 KP1005 [7]) | AZT MPC4 CMY-6 EC1010 (CMY-6 EC1010 [8]) | TIG MPC4 ECL1002 (ECL1002 [9]) | AZT MPC4 CTX-M-14 KP1005 (CTX-M-14 KP1005 [10]) | Ki (KPC-2) | Ki (P99) | Ki (SHV-12) | Ki (CTX-M-14) | TIG MPC4 CMY-6 EC1010 (CMY-6 EC1010 [11]) | AZT MPC4 TEM-10 ec302 (TEM-10 ec302 [12]) | further results |
| --- | --- | --- | --- | --- | --- | --- | --- | --- | --- | --- | --- | --- | --- | --- | --- | --- | --- | --- | --- | --- |
| NC(=O)CC(=O)N[C@H]1Cc2cccc(C(=O)O)c2OB1O [Compound 16, (R)-3-(3-amino-3-oxopropanamido)-2-hydroxy-3,4-dihydro-2H-benzo[e][1,2]oxaborinine-8-carboxylic acid] | < 1 nM | X (MIC of less than 1 μg/mL) | X (MIC of less than 1 μg/mL) | Y (MIC of 1 μg/mL to 10 μg/mL) | X (MIC of less than 1 μg/mL) | Y (MIC of 1 μg/mL to 10 μg/mL) | X (MIC of less than 1 μg/mL) | Y (MIC of 1 μg/mL to 10 μg/mL) | X (key: X: MIC of less than 1 μg/mL; Y: MIC of 1 μg/mL to 10 μg/mL; Z: MIC of greater than 10 μg/mL) | Y (key: X: MIC of less than 1 μg/mL; Y: MIC of 1 μg/mL to 10 μg/mL; Z: MIC of greater than 10 μg/mL) | X (MIC of less than 1 μg/mL) | X (MIC of less than 1 μg/mL) |  |  |  |  |  |  |  | Ki (SHV-12; nitrocefin reporter substrate, 10 min preincubation, read-out: Ki (SHV-12, NCF)): < 1 nM; clearance ([6]; dose 10 mg/kg): 14.5 mL/min/kg |
| CNC(=O)CC(=O)N[C@H]1Cc2cccc(C(=O)O)c2OB1O [Compound 21, (R)-2-hydroxy-3-(3-(methylamino)-3-oxopropanamido)-3,4-dihydro-2H-benzo[e][1,2]oxaborinine-8-carboxylic acid] | < 1 nM | X (MIC of less than 1 μg/mL) | X (MIC of less than 1 μg/mL) | Y (MIC of 1 μg/mL to 10 μg/mL) | X (MIC of less than 1 μg/mL) | Y (MIC of 1 μg/mL to 10 μg/mL) | X (MIC of less than 1 μg/mL) | Y (MIC of 1 μg/mL to 10 μg/mL) | Y (key: X: MIC of less than 1 μg/mL; Y: MIC of 1 μg/mL to 10 μg/mL; Z: MIC of greater than 10 μg/mL) | Y (key: X: MIC of less than 1 μg/mL; Y: MIC of 1 μg/mL to 10 μg/mL; Z: MIC of greater than 10 μg/mL) | X (MIC of less than 1 μg/mL) | X (MIC of less than 1 μg/mL) | Y (MIC of 1 μg/mL to 10 μg/mL) | > 10 nM | 1 to 10 nM | < 1 nM | 1 to 10 nM | X (MIC of less than 1 μg/mL) | Y (MIC of 1 μg/mL to 10 μg/mL) |  |
| O=C(CSC1CNC1)N[C@H]1Cc2cccc(C(=O)O)c2OB1O [Compound 22, (R)-3-(2-(azetidin-3-ylthio)acetamido)-2-hydroxy-3,4-dihydro-2H-benzo[e][1,2]oxaborinine-8-carboxylic acid] | 1 to 10 nM | X (MIC of less than 1 μg/mL) | X (MIC of less than 1 μg/mL) | Y (MIC of 1 μg/mL to 10 μg/mL) | X (MIC of less than 1 μg/mL) | Y (MIC of 1 μg/mL to 10 μg/mL) | X (MIC of less than 1 μg/mL) | X (MIC of less than 1 μg/mL) | X (key: X: MIC of less than 1 μg/mL; Y: MIC of 1 μg/mL to 10 μg/mL; Z: MIC of greater than 10 μg/mL) | Y (key: X: MIC of less than 1 μg/mL; Y: MIC of 1 μg/mL to 10 μg/mL; Z: MIC of greater than 10 μg/mL) | X (MIC of less than 1 μg/mL) | X (MIC of less than 1 μg/mL) | X (MIC of less than 1 μg/mL) | > 10 nM | 1 to 10 nM | < 1 nM | 1 to 10 nM | X (MIC of less than 1 μg/mL) | Y (MIC of 1 μg/mL to 10 μg/mL) | clearance ([6]; dose 20 mg/kg): 9.5 mL/min/kg |
| Nc1nnc(C(=O)N[C@H]2Cc3cccc(C(=O)O)c3OB2O)o1 [Compound 20, (R)-3-(5-amino-1,3,4-oxadiazole-2-carboxamido)-2-hydroxy-3,4-dihydro-2H-benzo[e][1,2]oxaborinine-8-carboxylic acid] | 1 to 10 nM | X (MIC of less than 1 μg/mL) | X (MIC of less than 1 μg/mL) | Y (MIC of 1 μg/mL to 10 μg/mL) | X (MIC of less than 1 μg/mL) | X (MIC of less than 1 μg/mL) | X (MIC of less than 1 μg/mL) | Y (MIC of 1 μg/mL to 10 μg/mL) | X (key: X: MIC of less than 1 μg/mL; Y: MIC of 1 μg/mL to 10 μg/mL; Z: MIC of greater than 10 μg/mL) | Y (key: X: MIC of less than 1 μg/mL; Y: MIC of 1 μg/mL to 10 μg/mL; Z: MIC of greater than 10 μg/mL) | X (MIC of less than 1 μg/mL) | X (MIC of less than 1 μg/mL) | Y (MIC of 1 μg/mL to 10 μg/mL) | > 10 nM | 1 to 10 nM | 1 to 10 nM | 1 to 10 nM | X (MIC of less than 1 μg/mL) | Y (MIC of 1 μg/mL to 10 μg/mL) | TIG MPC4 TEM-10 ec302 (TEM-10 ec302 [13]): Y (key: X: MIC of less than 1 μg/mL; Y: MIC of 1 μg/mL to 10 μg/mL; Z: MIC of greater than 10 μg/mL) |

From patent US9642869B2, “Boronic acid derivatives and therapeutic uses thereof” (Rempex Pharmaceuticals, Inc., priority 2013, dated 2017)
